From publication PMC6379498, “Radiosynthesis and in vivo evaluation of ^11C-labeled BMS-193885 and its desmethyl analog as PET tracers for neuropeptide Y1 receptors” (EJNMMI Radiopharmacy and Chemistry, 2019)

Assays:
[1] = Metabolite analysis of mouse plasma after co-injection of [^11C]1 with 1; assay type: in vivo, mice; settings: 30 min after co-injection of [^11C]1 with 1 (50 mg/kg), radio- and UV-HPLC
Description: In addition, the effects of co-injection of [^11C]1 with 1 on the results of metabolite analyses of plasma were investigated. [^11C]1 (26-30 MBq/0.38-0.45 nmol) and a solution of 1 (50 mg/kg b.w. in water containing 20% Tween 80) were intravenously co-injected into mice (aged 7-9 weeks, weighing 35-39 g, n = 4). Mice were euthanized by cervical dislocation at 30 min post-injection. Blood samples taken by heart puncture were collected into heparinized syringes. The samples were centrifuged at 13,000×g (Model 5500, KUBOTA, Tokyo, Japan) for 3 min at 4 °C to obtain plasma (0.2 mL). Plasma samples were added to equivalent volumes of acetonitrile, and mixtures were centrifuged at 20,000×g for 2 min. The precipitate was added to 0.2 mL of acetonitrile, and this mixture was centrifuged at 20,000×g for 2 min to obtain the supernatant. The mixed supernatant was added to 0.2 mL of water, and this solution was loaded into the injector loop. HPLC analysis was performed using the abovementioned radio-HPLC system for metabolite analysis, and also a […] column (5 μm mesh, 10 mm i.d. × 150 mm length; YMC, Kyoto, Japan). Elution was performed using a mixture of 90% acetonitrile solution and 0.1 mol/L ammonium acetate solution (45:55, vol./vol.). The flow rate was 4 mL/min.

[2] = target: T1, NPY Y1-Rs (Mus musculus, UniProt Q04573); experiment: Effect of pretreatment with 1 (BMS-193885) on tissue distribution of radioactivity; assay type: in vivo, mice; settings: 30 min post-injection, 1 10 mg/kg 20-30 min before tracer, vs control
T1 construct: in the lung, spleen, and kidney, which are rich in NPY Y1-Rs; from tissue; host or cells: organs of living mice (blood, heart, lung, spleen, kidney, liver, pancreas, muscle, brain etc.)
T1 sequence (Q04573 1-382): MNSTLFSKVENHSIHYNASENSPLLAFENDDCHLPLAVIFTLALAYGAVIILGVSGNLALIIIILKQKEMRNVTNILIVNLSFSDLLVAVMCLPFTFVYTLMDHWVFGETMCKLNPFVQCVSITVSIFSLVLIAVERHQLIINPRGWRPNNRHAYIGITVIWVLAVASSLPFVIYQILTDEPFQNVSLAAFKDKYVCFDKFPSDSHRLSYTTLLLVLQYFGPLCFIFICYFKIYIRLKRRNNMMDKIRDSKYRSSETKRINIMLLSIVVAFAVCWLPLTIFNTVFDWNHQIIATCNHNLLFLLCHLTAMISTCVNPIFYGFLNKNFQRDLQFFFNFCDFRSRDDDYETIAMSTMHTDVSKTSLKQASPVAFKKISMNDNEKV
Description: [^11C]1 (7.1–14 MBq/0.079–0.23 nmol) or [^11C]2 (6.0 MBq/0.16 nmol) was intravenously injected into mice (aged 7–8 weeks, weighing 32–36 g, n = 4–8) 20–30 min after the administration of the solution of 1 (10 mg/kg body weight [b.w.]/0.1 mL water containing 20% Tween 80), elacridar (5 mg/kg b.w./0.1 mL water), or a control fluid (0.1 mL water). Mice were euthanized by cervical dislocation at 30 min post-injection.
Blood samples were collected by heart puncture. Tissues were dissected and weighed. […] The tissue uptake of radioactivity was expressed as the percentage of injected dose detected per gram of sample (%ID/g, tissue radioactivity/g tissue/injected radioactivity × 100).

SMILES	Metabolites found in mouse plasma [1]	Change of radioactivity level in blood by pretreatment with 1 [2]	Change of radioactivity level in brain by pretreatment with 1 [2]	Change of radioactivity level in heart by pretreatment with 1 [2]	Change of radioactivity level in kidney by pretreatment with 1 [2]	Change of radioactivity level in lung by pretreatment with 1 [2]	Change of radioactivity level in muscle by pretreatment with 1 [2]	Change of radioactivity level in pancreas by pretreatment with 1 [2]	Change of radioactivity level in spleen by pretreatment with 1 [2]
COC(=O)C1=C(C)NC(C)=C(C(=O)OC)C1c1cccc(NC(=O)NCCCN2CCC(c3cccc(O[11CH3])c3)CC2)c1 [[^11C]1]	rapidly metabolized into its unlabeled desmethyl analog 2 and radiolabeled components	not changed	not changed	not changed	significantly decreased	significantly decreased	not changed	not changed	significantly decreased
COC(=O)C1=C(C)NC(C)=C(C(=O)OC)C1c1cccc(N[11C](=O)NCCCN2CCC(c3cccc(O)c3)CC2)c1 [[^11C]2]	–	not changed	not changed	not changed	significantly decreased	significantly decreased	not changed	not changed	significantly decreased
